According to ChEMBL document CHEMBL3860073, “Thermodynamic properties of leukotriene A4 hydrolase inhibitors” (Bioorg Med Chem, 2016):

Columns and labels:
[1] = target: T1, Leukotriene A-4 hydrolase (Homo sapiens, UniProt P09960); experiment: Inhibition of human C-terminal his6-tagged/N-terminal T7 gene leader sequence-tagged LTA4H using L-arginine-7-amino-4-Methylcoumarine as substrate preincubated for 30 mins followed by substrate addition measured for 30 mins by fluorescence assay
T1 sequence (P09960 whole entry): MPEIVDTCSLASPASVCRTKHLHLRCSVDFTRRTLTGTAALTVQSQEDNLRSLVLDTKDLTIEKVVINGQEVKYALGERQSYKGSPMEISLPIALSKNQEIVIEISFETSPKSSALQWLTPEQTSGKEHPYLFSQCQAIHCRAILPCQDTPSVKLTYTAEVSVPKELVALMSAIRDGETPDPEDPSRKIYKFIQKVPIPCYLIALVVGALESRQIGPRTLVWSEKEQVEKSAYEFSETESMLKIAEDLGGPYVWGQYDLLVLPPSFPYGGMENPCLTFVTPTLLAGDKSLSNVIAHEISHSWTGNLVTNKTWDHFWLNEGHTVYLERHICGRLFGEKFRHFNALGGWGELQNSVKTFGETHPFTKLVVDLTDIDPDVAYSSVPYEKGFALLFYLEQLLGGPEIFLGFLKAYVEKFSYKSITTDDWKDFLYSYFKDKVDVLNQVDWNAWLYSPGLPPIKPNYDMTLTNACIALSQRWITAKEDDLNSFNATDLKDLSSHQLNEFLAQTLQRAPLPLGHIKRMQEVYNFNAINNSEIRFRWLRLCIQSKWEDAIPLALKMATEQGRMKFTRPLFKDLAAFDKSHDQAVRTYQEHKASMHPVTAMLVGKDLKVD

[2] = target: T1, Leukotriene A-4 hydrolase; experiment: Binding affinity to human C-terminal his6-tagged/N-terminal T7 gene leader sequence-tagged LTA4H at 35 degC by ITC method
[3] = target: T1, Leukotriene A-4 hydrolase; experiment: Competitive inhibition of human C-terminal his6-tagged/N-terminal T7 gene leader sequence-tagged LTA4H using varying levels of L-arginine-7-amino-4-Methylcoumarine as substrate preincubated for 30 mins followed by substrate addition measured for 30 mins by fluorescence assay
[4] = target: T1, Leukotriene A-4 hydrolase; experiment: Binding affinity to human C-terminal his6-tagged/N-terminal T7 gene leader sequence-tagged LTA4H at 25 degC by ITC method
[5] = target: T1, Leukotriene A-4 hydrolase; experiment: Binding affinity to human C-terminal his6-tagged/N-terminal T7 gene leader sequence-tagged LTA4H at 15 degC by ITC method
[6] = target: T2, Leukotriene A-4 hydrolase (Homo sapiens) (UniProt P09960)
T2 sequence (whole entry): T1 sequence (P09960 whole entry)
Description: Binding affinity to human C-terminal His6-tagged/N-terminal T7 gene leader sequence-tagged LTA4H assessed as change in melting temperature at 1 mM by circular dichroism spectroscopic analysis

[7] = target: T2, Leukotriene A-4 hydrolase (Homo sapiens); remark: listed apart in the source
[8] = target: T2, Leukotriene A-4 hydrolase (Homo sapiens); details: 40 uM
[9] = target: T2, Leukotriene A-4 hydrolase (Homo sapiens); experiment: Binding affinity to human C-terminal His6-tagged/N-terminal T7 gene leader sequence-tagged LTA4H assessed as change in melting temperature at 0.5 mM by circular dichroism spectroscopic analysis

SMILES	IC50 [1]	Kd [2]	Ki [3]	Kd [4]	Kd [5]	ΔTm [6]	ΔTm [7]	ΔTm [8]	ΔTm [9]
C[C@H](CS)C(=O)N1CCC[C@H]1C(=O)O [CAPTOPRIL]	3600 nM	8470 nM	3700 nM	6250 nM	6370 nM	0.7 °C	1.5 °C	–	–
Nc1nc(-c2ccc(Cc3ccccc3)cc2)cs1	400 nM	220 nM	360 nM	310 nM	130 nM	–	5.3 °C	5.3 °C	–
CN(CCCOc1ccc(Cc2ccccc2)cc1)CCC(=O)O	–	–	–	–	–	–	5.4 °C	–	8.9 °C
CC(C)C[C@H](NC(=O)[C@@H](O)[C@H](N)Cc1ccccc1)C(=O)O	–	–	–	–	–	5.2 °C	5.1 °C	–	–
CN(C)CCOc1ccc(Oc2ccccc2)cc1	60 nM	270 nM	160 nM	270 nM	60 nM	–	5 °C	–	7.8 °C
